This is an account of results in US20160297833A1, “THIENOPYRIMIDINES AS MKNK1 AND MKNK2 INHIBITORS” (BAYER PHARMA AKTIENGESELLSCHAFT, priority 2013, published 2016).

SMILES strings stand for the structures.

T1 sequence (Q9BUB5 1-424 isoform Q9BUB5-2 T344D): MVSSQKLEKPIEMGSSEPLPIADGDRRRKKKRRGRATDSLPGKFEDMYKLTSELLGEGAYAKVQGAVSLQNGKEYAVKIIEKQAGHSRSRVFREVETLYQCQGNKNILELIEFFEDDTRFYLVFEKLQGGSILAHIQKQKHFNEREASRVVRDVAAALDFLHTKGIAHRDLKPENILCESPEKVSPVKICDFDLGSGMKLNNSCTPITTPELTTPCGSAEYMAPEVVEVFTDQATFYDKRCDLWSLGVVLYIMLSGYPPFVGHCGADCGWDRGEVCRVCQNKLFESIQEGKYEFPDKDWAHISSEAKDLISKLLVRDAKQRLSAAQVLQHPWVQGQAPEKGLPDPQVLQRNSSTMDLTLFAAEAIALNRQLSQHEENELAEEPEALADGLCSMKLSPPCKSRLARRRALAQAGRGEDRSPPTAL

The test concerns the target T1, human full-length MKNK1 (Homo sapiens, UniProt Q9BUB5, T385D).
T1 construct: GST (N); purchased Carna Biosciences 02-145; host or cells: insect cells (baculovirus expression system)
The test can be described thus: MKNK1 kinase high ATP assay (TR-FRET). The conditions noted are these: Table 1; MKNK1 kinase high ATP assay, 2 mM ATP; read-out: MKNK1 IC50. It counts as biochemical. In outline: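 Full-length human MKNK1 (T385D) preincubated 15 min at 22 °C with compound in HEPES pH 7.5/MgCl2/DTT buffer; reaction with 2 mM ATP (final) and 0.06 μM biotinylated peptide (final), 30 min at 22 °C.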
For `CN(C)C(=O)[C@H]1CCc2c(sc3ncnc(Nc4cc5cn[nH]c5cc4OCCN4CCCCC4)c23)C1` [Example 113, (7S)—N,N-Dimethyl-4-({6-[2-(piperidin-1-yl)ethoxy]-1H-indazol-5-yl}amino)-5,6,7,8-tetrahydro[1]benzothieno[2,3-d]pyrimidine-7-carboxamide], the IC50 was determined as 634 nM.
Consider `COc1cc2[nH]ncc2cc1Nc1ncnc2sc3c(c12)CC[C@@H](C(=O)N(C)C(C)C)C3` [Example 27, (7R)-4-[(6-Methoxy-1H-indazol-5-yl)amino]-N-methyl-N-(propan-2-yl)-5,6,7,8-tetrahydro[1]benzothieno[2,3-d]pyrimidine-7-carboxamide], for which the IC50 was 38.9 nM.
On to `C[C@H]1COCCN1C(=O)[C@H]1CCc2c(sc3ncnc(Nc4cc5cn[nH]c5cc4N4CCCC4)c23)C1` [Example 185, [(3S)-3-Methylmorpholin-4-yl][(7S)-4-{[6-(pyrrolidin-1-yl)-1H-indazol-5-yl]amino}-5,6,7,8-tetrahydro[1]benzothieno[2,3-d]pyrimidin-7-yl]methanone], for which the IC50 is 0.6 nM.
As for `C[C@H]1CN(C(=O)[C@H]2CCc3c(sc4ncnc(Nc5cc6cn[nH]c6cc5N(C)C)c34)C2)C[C@H](C)O1` [Example 239, [(7S)-4-{[6-(Dimethylamino)-1H-indazol-5-yl]amino}-5,6,7,8-tetrahydro[1]benzothieno[2,3-d]pyrimidin-7-yl][(2S,6S)-2,6-dimethylmorpholin-4-yl]methanone], the IC50 is 0.3 nM.
In the case of `COc1cc2[nH]ncc2cc1Nc1ncnc2sc3c(c12)CC[C@H](C(=O)N1C[C@@H]2C[C@H]1CO2)C3` [Example 33, {(7S)-4-[(6-Methoxy-1H-indazol-5-yl)amino]-5,6,7,8-tetrahydro[1]benzothieno[2,3-d]pyrimidin-7-yl}[(1S,4S)-2-oxa-5-azabicyclo[2.2.1]hept-5-yl]methanone] it was 1.5 nM; in that of `CN(C)C(=O)[C@H]1CCc2c(sc3ncnc(Nc4cc5cn[nH]c5cc4N(C)CCNC(=O)OC(C)(C)C)c23)C1` [Example 243, tert-butyl {2-[(5-{[(7S)-7-(Dimethylcarbamoyl)-5,6,7,8-tetrahydro[1]benzothieno[2,3-d]pyrimidin-4-yl]amino}-1H-indazol-6-yl)(methyl)amino]ethyl}carbamate], 1.6 nM.
The figure for `O=C([C@H]1CCc2c(sc3ncnc(Nc4ccc5[nH]ncc5c4)c23)C1)N1CCOCC1` [Example 9, [(7S)-4-(1H-Indazol-5-ylamino)-5,6,7,8-tetrahydro[1]benzothieno[2,3-d]pyrimidin-7-yl](morpholin-4-yl)methanone] is 25.6 nM; for `CN(C)C(=O)[C@H]1CCc2c(sc3ncnc(Nc4cc5cn[nH]c5cc4OCCN)c23)C1` [Example 108, (7S)-4-{[6-(2-Aminoethoxy)-1H-indazol-5-yl]amino}-N,N-dimethyl-5,6,7,8-tetrahydro[1]benzothieno[2,3-d]pyrimidine-7-carboxamide] it is 0.6 nM.
For `CCN(CCO)C(=O)[C@H]1CCc2c(sc3ncnc(Nc4ccc5[nH]ncc5c4)c23)C1` [Example 19, (7S)—N-Ethyl-N-(2-hydroxyethyl)-4-(1H-indazol-5-ylamino)-5,6,7,8-tetrahydro[1]benzothieno[2,3-d]pyrimidine-7-carboxamide], the IC50 turned out to be 2.5 nM.
The figure for `COc1cc2[nH]ncc2cc1Nc1ncnc2sc3c(c12)CC[C@H](C(=O)N1CCCO1)C3` [Example 213, {(7S)-4-[(6-Methoxy-1H-indazol-5-yl)amino]-5,6,7,8-tetrahydro[1]benzothieno[2,3-d]pyrimidin-7-yl}(1,2-oxazolidin-2-yl)methanone] is 0.4 nM.
In the case of `CN(C)C(=O)[C@H]1CCc2c(sc3ncnc(Nc4cc5cn[nH]c5cc4OCCN4CCOC4=O)c23)C1` [Example 194, (7S)—N,N-Dimethyl-4-({6-[2-(2-oxo-1,3-oxazolidin-3-yl)ethoxy]-1H-indazol-5-yl}amino)-5,6,7,8-tetrahydro[1]benzothieno[2,3-d]pyrimidine-7-carboxamide], the IC50 worked out at 44.3 nM.
The figure for `COc1cc2[nH]ncc2cc1Nc1ncnc2sc3c(c12)CC[C@H](C(=O)N1CC2CC2C1)C3` (stereo partly drawn) [Example 209, 3-Azabicyclo[3.1.0]hex-3-yl{(7S)-4-[(6-methoxy-1H-indazol-5-yl)amino]-5,6,7,8-tetrahydro[1]benzothieno[2,3-d]pyrimidin-7-yl}methanone] is 0.5 nM; for `CC(C)N(C)C(=O)[C@H]1CCc2c(sc3ncnc(Nc4cc5cn[nH]c5cc4N4CCC(N(C)C)CC4)c23)C1` [Example 155, (7S)-4-({6-[4-(Dimethylamino)piperidin-1-yl]-1H-indazol-5-yl}amino)-N-methyl-N-(propan-2-yl)-5,6,7,8-tetrahydro[1]benzothieno[2,3-d]pyrimidine-7-carboxamide] it is 7.6 nM.
The figure for `CC(C)Oc1cc2[nH]ncc2cc1Nc1ncnc2sc3c(c12)CC[C@H](C(=O)N(CCO)CCO)C3` [Example 91, (7S)—N,N-bis(2-Hydroxyethyl)-4-{[6-(propan-2-yloxy)-1H-indazol-5-yl]amino}-5,6,7,8-tetrahydro[1]benzothieno[2,3-d]pyrimidine-7-carboxamide] is 0.1 nM; for `COc1cc2[nH]ncc2cc1Nc1ncnc2sc3c(c12)CC[C@H](C(=O)N1C[C@@H](C)O[C@@H](C)C1)C3` [Example 161, [(2R,6S)-2,6-dimethylmorpholin-4-yl]{(7S)-4-[(6-methoxy-1H-indazol-5-yl)amino]-5,6,7,8-tetrahydro[1]benzothieno[2,3-d]pyrimidin-7-yl}methanone] it is 1.2 nM; for `CCOc1cc2[nH]ncc2cc1Nc1ncnc2sc3c(c12)CC[C@H](C(=O)N1CC(N2CCCCC2)C1)C3` [Example 175, {(7S)-4-[(6-Ethoxy-1H-indazol-5-yl)amino]-5,6,7,8-tetrahydro[1]benzothieno[2,3-d]pyrimidin-7-yl}[3-(piperidin-1-yl)azetidin-1-yl]methanone] it is 0.2 nM.
With `CN(C)C(=O)[C@H]1CCc2c(sc3ncnc(Nc4cc5cn[nH]c5cc4OCCCN)c23)C1` [Example 111, (7S)-4-{[6-(3-Aminopropoxy)-1H-indazol-5-yl]amino}-N,N-dimethyl-5,6,7,8-tetrahydro[1]benzothieno[2,3-d]pyrimidine-7-carboxamide], the IC50 came to 1.4 nM.
In the case of `CSc1cc2[nH]ncc2cc1Nc1ncnc2sc3c(c12)CC[C@H](C(=O)N(C)C(C)C)C3` [Example 251, (7S)—N-Methyl-4-{[6-(methylsulfanyl)-1H-indazol-5-yl]amino}-N-(propan-2-yl)-5,6,7,8-tetrahydro[1]benzothieno[2,3-d]pyrimidine-7-carboxamide] it was 1.5 nM.
The figure for `CN(CC(C)(C)O)C(=O)[C@H]1CCc2c(sc3ncnc(Nc4ccc5[nH]ncc5c4)c23)C1` [Example 18, (7S)—N-(2-Hydroxy-2-methylpropyl)-4-(1H-indazol-5-ylamino)-N-methyl-5,6,7,8-tetrahydro[1]benzothieno[2,3-d]pyrimidine-7-carboxamide] is 3.9 nM.
Take `COc1cc2[nH]ncc2cc1Nc1ncnc2sc3c(c12)CC[C@H](C(=O)N(CCN(C)C)Cc1ccccn1)C3` [Example 60, (7S)—N-[2-(Dimethylamino)ethyl]-4-[(6-methoxy-1H-indazol-5-yl)amino]-N-(pyridin-2-ylmethyl)-5,6,7,8-tetrahydro[1]benzothieno[2,3-d]pyrimidine-7-carboxamide]: the half-maximal inhibitory concentration (IC50) came out at 0.2 nM.
As to `CCN(CCO)C(=O)[C@@H]1CCc2c(sc3ncnc(Nc4cc5cn[nH]c5cc4OC)c23)C1` [Example 41, (7R)—N-Ethyl-N-(2-hydroxyethyl)-4-[(6-methoxy-1H-indazol-5-yl)amino]-5,6,7,8-tetrahydro[1]benzothieno[2,3-d]pyrimidine-7-carboxamide], the IC50 worked out at 10.5 nM.
In the case of `C[C@H]1COCCN1C(=O)[C@H]1CCc2c(sc3ncnc(Nc4cc5cn[nH]c5cc4Br)c23)C1` [Example 235, {(7S)-4-[(6-Bromo-1H-indazol-5-yl)amino]-5,6,7,8-tetrahydro[1]benzothieno[2,3-d]pyrimidin-7-yl}[(3S)-3-methylmorpholin-4-yl]methanone] it was 3.4 nM; in that of `COc1cc2[nH]ncc2cc1Nc1ncnc2sc3c(c12)CC[C@H](C(=O)N1C(=O)O[C@H](c2ccccc2)[C@@H]1C)C3` [Example 64, (4S,5R)-3-({(7S)-4-[(6-Methoxy-1H-indazol-5-yl)amino]-5,6,7,8-tetrahydro[1]benzothieno[2,3-d]pyrimidin-7-yl}carbonyl)-4-methyl-5-phenyl-1,3-oxazolidin-2-one], 10.5 nM; in that of `CCOc1cc2[nH]ncc2cc1Nc1ncnc2sc3c(c12)CC[C@H](C(=O)N(C)CCO)C3` [Example 73, (7S)-4-[(6-Ethoxy-1H-indazol-5-yl)amino]-N-(2-hydroxyethyl)-N-methyl-5,6,7,8-tetrahydro[1]benzothieno[2,3-d]pyrimidine-7-carboxamide], 0.3 nM.
In the case of `CCCN(C)C(=O)[C@H]1CCc2c(sc3ncnc(Nc4cc5cn[nH]c5cc4OC)c23)C1` [Example 97, (7S)-4-[(6-methoxy-1H-indazol-5-yl)amino]-N-methyl-N-propyl-5,6,7,8-tetrahydro[1]benzothieno[2,3-d]pyrimidine-7-carboxamide] it was 0.3 nM; in that of `O=C([C@H]1CCc2c(sc3ncnc(Nc4cc5cn[nH]c5cc4N4CCCC4)c23)C1)N1CCC1` [Example 195, Azetidin-1-yl[(7S)-4-{[6-(pyrrolidin-1-yl)-1H-indazol-5-yl]amino}-5,6,7,8-tetrahydro[1]benzothieno[2,3-d]pyrimidin-7-yl]methanone], 0.9 nM; in that of `CN1CCN(C(=O)[C@@H]2CCc3c(sc4ncnc(Nc5ccc6[nH]ncc6c5)c34)C2)CC1` [Example 15, [(7R)-4-(1H-Indazol-5-ylamino)-5,6,7,8-tetrahydro[1]benzothieno[2,3-d]pyrimidin-7-yl](4-methylpiperazin-1-yl)methanone], 88.5 nM.

As a reminder, the IC50 is the concentration at which inhibition is half-maximal.
